These results are taken from paper PMC12736791, “Co-Amorphous Systems Based on Dihydroquercetin and L-Lysine: Synthesis and Evaluation” (Pharmaceutics, 2025).

Data set [1] in a line: Solubility studies, pharmacopoeial descriptive terms. The conditions noted are these: in water at room temperature. It counts as physicochemical.
Procedure: The analysis was performed in accordance with the pharmacopoeial monograph of the State Pharmacopoeia of the Russian Federation XV, which is equivalent to the terms of the Pharmacopoeia of the Eurasian Economic Union and the European Pharmacopeia 11.5 at ambient conditions.
A measured amount of solvent was added to the suspension of the substance, and the mixture was continuously shaken for 1 min and placed in a thermostat set at a temperature of 24.5–25.5 °C for 15 min. If the substance had not completely dissolved, the shaking process was repeated for another minute, and the solution was kept in the thermostat for another 15 min period at the same temperature.
A further data set deals with HEK293 cells. The data set can be described thus: Cytotoxicity assay (CCK-8), HEK293. It counts as cell-based, human. The conditions noted are these: HEK293, 24 h. Here is the method: (§1) The cells were cultured in a medium containing DMEM:FBS:MEM:P/S in a ratio of 88:10:1:1 for Caco-2 (immortalized human colorectal adenocarcinoma) cells, and DMEM:FBS:P/S in a ratio of 89:10:1 for HUVEC (Human umbilical vein endothelial cells), 3T3 (mouse embryonic fibroblasts), and HEK293 (immortalized human embryonic kidney) cell lines. The cell cultures were maintained in 100 mm diameter Petri dishes within a CelMate® CO2 Incubator (Esco Lifesciences Group, Singapore) at 37 °C in an atmosphere containing 5% carbon dioxide and a relative humidity of 95%. The culture medium was refreshed every 24 h.
(§2) To determine cell concentration, 1.0 mL of a trypsin solution containing EDTA, pre-warmed to 37 °C, was added to a Petri dish and incubated for up to 5 min. […] Subsequently, 100 µL of the solution was introduced into the Neubauer chamber XB.K.25 (QUIJING, Shanghai, China), and the concentration (cells/mL) was calculated using the following formula:(1) C=Ncell/Nsquares×[…], where Ncell represents the number of cells counted in the Neubauer chamber field and Nsquares represents the number of squares in the Neubauer chamber used for concentration calculation. […]
(§3) The resulting solutions were analyzed on a microplate spectrophotometer Eon (BioTek, Winooski, VT, USA) at the maximum absorption of the reduced form of CCK-8, measured at 450 nm. […]

A further data set has as its system Caco-2 cells. Kind of data set: Cytotoxicity assay (CCK-8), Caco-2. It counts as cell-based, human. The conditions noted are these: Caco-2, 24 h. Here is the method:
as §1, §2, §3

A further data set concerns HUVEC cells. The data set can be described thus: Cytotoxicity assay (CCK-8), HUVEC. It counts as cell-based, human. The conditions noted are these: 24 h. Here is the method: as §1, §2, §3
The next data set has as its system 3T3 cells. The data set can be described thus: Cytotoxicity assay (CCK-8), 3T3. It counts as cell-based, mouse. The procedure:
as §1, §2, §3

On the set-up of data set [2]: method as in earlier work. The conditions noted are these: water, room temperature; European Pharmacopoeia 11.5; cited from earlier work.
Details of data set [3]: method as in PMID 38139995. The conditions noted are these: unmodified flavonoid; cited from earlier work.

≈ marks a conversion by molar mass, not a printed value. Read-outs that look alike come from different tables or passages of the source.

Turning to `O=C1c2c(O)cc(O)cc2OC(c2ccc(O)c(O)c2)C1O` (centres unmarked) [DHQraw, 2,3-dihydro-3,5,7-trihydroxy-2-(3,4-dihydroxyphenyl)-4H-1-benzopyran-4-one], the “Solubility (pharmacopoeial descriptive term)” value in data set [1] and in data set [2] was “very slightly soluble” each time. The IC50 in the data set on HEK293 cells (Homo sapiens, read-out: IC50) worked out at 39 µg/mL (≈ 128 µM); in the data set on Caco-2 cells (Homo sapiens, read-out: IC50), 65 µg/mL; in the data set on HUVEC cells (Homo sapiens, read-out: IC50), 88 µg/mL (≈ 289 µM); with 3T3 cells (Mus musculus, NIH3T3, 3T3, 24 h, read-out: IC50), 96 µg/mL (≈ 316 µM).
Take `NCCCC[C@H](N)C(=O)O` [LYSlyo]: the IC50 with HEK293 cells was 1490 µg/mL (≈ 10200 µM); with Caco-2 cells it was 538 µg/mL; in the data set on HUVEC cells it was 826 µg/mL (≈ 5650 µM); with 3T3 cells (3T3, 24 h) it was “above the maximum concentration”.
Take `O=c1c(-c2ccc(O)cc2)coc2cc(O)cc(O)c12` [genistein]: the Solubility of genistein in data set [3] was 0.05 ± 0.01 µg/mL.

In general, IC50 refers to the concentration at which inhibition is half-maximal.
